pKi: −log10 of the molar value. Residues, ends and D or L forms follow the SMILES beside them.
Key:
[1] = tested on: hippocampal slices from 8-month-old WT and APP/PS1 mice; test: LTP field potential recordings in acute hippocampal slices; parameters: species or system mouse; details: for LTP amplitude computed as fEPSP slope 50 to 60 min after TBS / effect on LTP responses in WT slices: peptide 500 nM for 40 min before TBS
Description: Animals specimens Embryonic day 17-18 (E17-18) C57BI/6JRj wild-type male and female mice were used for primary hippocampal cell cultures. Electrophysiological field potential recording experiments were performed on 8-month-old wild type and transgenic heterozygous male APP/PS1-21 mice generated on a C57Bl/6 background and expressing a transgene combining human APP with the Swedish mutation (APPKM670/671NL) and mutated L166P human presenilin 1 (PS1) under the Thyl promoter (Radde et al, 2006). Wild type and APP/PSI mice were generated as described previously (Radde et al, 2006) and genotyping was carried out to reveal the presence or absence of APP and PSI transgenes. The study was conducted in accordance with the European Community Council directive 2010/63/EU on the protection of animals used for experimental and scientific purposes. Animal care and treatment procedures were realized according to the guidelines approved by the French Ethical Committee of the Lyon 1 University (DR2013-47).
Local field potential recordings (LFP) were performed on acute coronal hippocampal slices from 8-month-old wild type and transgenic heterozygous male APP/PS1-21 mice to measure baseline synaptic response and long-term potentiation (LTP) of Schaffer collaterals to CAI pyramidal cell synapses. Hippocampal slices (400 μm thick) were cut using a vibratome (Leica VT1200S) and incubated at room temperature in artificial cerebrospinal fluid (ACSF) containing (in mM): 124 NaCl, 10 glucose, 1.25 NaH2PO4, 2.5 KCl, 26 NaHCO3, 1.3 MgCl2, and 2.5 CaCl2, bubbled with 95% 02 and 5% CO2, pH 7.4) for 1 h prior to recording. Field excitatory postsynaptic potentials (fEPSPs) were recorded extracellularly in stratum radiatum of CAI region of the dorsal hippocampus in presence of gammaaminobutyric acid (GABA)-A receptor antagonist picrotoxin (100 μM). Electrical stimulation was realized with a bipolar tungsten electrode placed in CAI stratum radiatum and fEPSPs were measured using borosilicate glass microelectrodes (˜1-3 M (2) filled with ACSF. The tip of the recording electrode was located close to the slice surface. LFP were amplified and low-pass filtered at 3 kHz using a differential amplifier (X1000, WPI) and data acquisition and analyses were carried out using a National Instrument interface coupled with Elphy software (G. Sadoc, CNRS, France). LFP were sampled at 10 kHz and fEPSPs initial slope was computed to quantify synaptic responses. After baseline recordings of synaptic activity evoked at 0.2 Hz for at least 10 minutes, slices were incubated in ACSF or treated with the CP or BP at 500 nM for 40 min before inducing LTP with the theta burst stimulation (TBS). The effects of the peptides on synaptic responses were tested in a series of pilot experiments on mice of both genotypes. […] TBS consisted of 10 trains separated by 30 s, each train composed of 6 bursts at 5 Hz and each burst providing 4 pulses at 100 Hz. Before LTP induction, precautions were taken to ensure that approximately the same amplitude of fEPSPs was obtained in baseline for the different experiments to achieve the same level of cooperativity in each group. After LTP induction, fEPSPs were recorded for at least 60 min.

[2] = tested on: DIV 21 primary hippocampal neurons; test: Aβ synaptic targeting in primary hippocampal neurons; type: cell-based, mouse; details: 500 nM biotinylated HMW Aβo enriched preparation aggregated 2 h with equimolar peptide; neurons treated 30 min
Description: Primary hippocampal neuron cultures were prepared from E17-18 C57Bl/6JRj mice. Briefly, hippocampi were removed, cut into pieces in Hank's buffered salt solution (HBSS), digested in HBSS supplemented with trypsin (0.25% v/v) and rinsed in HBSS and BSA 0.2%. Next, hippocampi were triturated in Neurobasal medium without phenol red supplemented with L-glutamine (2 mM), 2% B27, 1% penicillin-streptomycin (10000 U/mL). Hippocampal neurons were then plated onto poly-L-lysine coated coverslips (0.5 mg/ml) at a low density (15×10^3 cells/cm2) for synaptic targeting experiments. Neurons were subsequently cultured for 21 DIV in supplemented Neurobasal medium at 37° C. under 5% CO2, one-half of the media being changed once a week. […]
Treated hippocampal neuron cultures were fixed with 4% paraformaldehyde in 0.1 M phosphate buffer at RT prior to immunostaining. After a blocking step in non-permeabilizing condition (PBS, 1% BSA) surface-bound biotinylated Aβ was detected with fluorescently tagged streptavidin (Alexa Fluor 647, Invitrogen) incubated for 3 h at RT. […]
Immunostainings images were obtained using a confocal Zeiss LSM 880 AiryScan microscope equipped with two diode lasers (405, 561 nm), a laser gaz argon (488 nm) and a laser gaz He/Ne ([…]), a 63x objective and an additional zoom factor (3x). […] Biotinylated Aβ clusters were quantified in each ROI in collapsed Z-stacks.

[3] = molecular target: T1, Aβo-VEGF interaction (recombinant human VEGF165) (Homo sapiens, UniProt P05067); test: Competitive ELISA of Aβo binding to immobilized VEGF; details: for inhibition of the binding of Aβo to VEGF: biotinylated Aβ42 oligomers 2.1 μM, peptide 10 nM to 100 μM
T1 construct: purchased Bachem
Description: Competitive ELISA experiments were performed to analyze the ability of the BP to impede AB42 oligomers binding to VEGF. For these assays, recombinant human VEGF165 (500 ng/ml-1) was immobilized in the 96-well microplate as the capture antigen and incubated overnight at 4° C. The following day, biotinylated AB42 oligomers were precubated at 2.1 μM for 1 h at RT with various concentrations of the CP or BP ranging from 10 nM to 100 μM. After 3 rinces with PBS 0.05% Tween 20, the mix was added in triplicate and incubated for 2 h at RT. Next, a washing step was performed followed by an incubation with the HRP-conjugated streptavidin for 20 min, additional rinces and finally the substrate solution containing TMB and H2O2. Absorbance was measured using a TECAN microplate reader.

T1 sequence (P05067 672-713 limits assumed): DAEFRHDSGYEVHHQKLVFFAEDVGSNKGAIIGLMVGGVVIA

| Compound | change in baseline synaptic responses before LTP induction ([1]; 500 nM, during the 40 min prior to LTP induction, mice of both genotypes) | LTP amplitude computed as fEPSP slope 50 to 60 min after TBS ([1]; APP/PS1 slices) [%] | effect on LTP responses in WT slices ([1]; WT slices) | synapses colocalized with Aβ [2] | pKi [3] | inhibition of the binding of Aβo to VEGF [3] | LTP amplitude computed as fEPSP slope 50 to 60 min after TBS ([1]; WT slices) [%] |
| --- | --- | --- | --- | --- | --- | --- | --- |
| CC(C)[C@H](NC(=O)[C@H](Cc1ccc(O)cc1)NC(=O)[C@@H](NC(=O)[C@H](CO)NC(=O)[C@H](Cc1c[nH]c2ccccc12)NC(=O)[C@H](CO)NC(=O)[C@H](CCCCN)NC(=O)[C@H](Cc1ccc(O)cc1)NC(=O)[C@H](CCCNC(=N)N)NC(=O)[C@H](CO)NC(=O)[C@H](CCCCN)NC(=O)[C@H](CCCCN)NC(=O)[C@H](CCCNC(=N)N)NC(=O)[C@@H](N)CCCCN)C(C)C)C(=O)NCC(=O)O [BP, KRKKSRYKSWSVYVG] (H-KRKKSRYKSWSVYVG-OH; N-terminus and C-terminus assumed) | did not induce a change | 226.7±40.5 | does not alter LTP responses | only a small proportion | 6.47 | clear dose-dependent reduction |  |
| NDYKDDDDKGAAA [CP, reference compound] |  | 119.8±9.1 | does not alter LTP responses | ~40% |  | did not inhibit | 191.4±18.3 |

— patent publication US20250340593A1, “METHOD AND COMPOSITION FOR TREATING NEURODEGENERATIVE DISORDER” (priority 2022, published 2025)
